Measurements reported in patent publication US20230301299A1, “DISINFECTING FORMULATIONS WITH CARVACROL” (priority 2022, published 2023).

Assays:
Staphylococcus aureus [1] = assay: minimum inhibitory concentration test (normalized T0, growth after neutralisation); assay type: cell-based; conditions: for inhibitory effect (normalized T0, lower = increased inhibitory effect): FIG. 1, 0.5% essential oil compound, 5 minute contact time, 24 hour growth
Description: Various essential oil compounds were evaluated in a minimum inhibitory concentration test (e.g., against Staphylococcus aureus), to evaluate the inhibiting characteristics of the various tested compounds. […] Each candidate essential oil compound active was tested at 0.5% concentration, with 1% sodium lauryl sulfate (SLS), with a 5 minute contact time. As those of skill in the art will appreciate, the testing was conducted following EPA microbiology efficacy protocols, where the candidate active to be tested is applied to an inoculum (e.g., Staphylococcus aureus), and after a given contact time (e.g., 5 minutes), the active being tested is neutralized (e.g., with growth media), and the treated inoculum is allowed to grow out over a period of 24 hours. After the 24 hour growth period, an automated plate reader is used to measure inoculum growth, and the results are tabulated, relative to a control standard, which was not contacted with any active. Such testing therefore allows determination of which candidate actives provide for an inhibitory effect relative to a target microbe, as well as information relative to which candidate actives may be better than others.
Based on the results seen in FIG. 1, carvacrol was identified as a good candidate for further study. […] All tested samples included 1% SLS, with 0.5% of the shown co-surfactant, and 0.2% of the shown essential oil compound, with the results averaged over 3 contact times of 5, 15, and 30 minutes. […] For example, the amine oxide, sophorolipid, alkylpolyglycoside, and alcohol ethoxylate show such results, particularly in combination with carvacrol. For this reason, such surfactants may be avoided, in at least some embodiments of the present invention.
All tested samples included 1.5% SLS as the primary surfactant, with 1% of the shown essential oil compound, and 1% of the tested co-surfactant.
In particular, FIG. 5 plots change in T0 (ΔT0) compared to carvacrol as used alone (i.e. with no secondary essential oil compound).

Staphylococcus aureus [2] = assay: log reduction, EPA germicidal spray test (GST) / OECD quantitative method; assay type: cell-based; conditions: FIG. 7; 1% SLS, 0.5% second alkyl sulfate, 0.4% silicate buffer, 0.25% chelating agent, carvacrol 0.2% up to 1%; 3 and 5 minute contact times
Description: Tests were performed under standards promulgated by the EPA (e.g., the EPA's germicidal spray test “GST”) and the OECD (e.g., the Organization for Economic Co-Operation and Development). The OECD standards include an evaluation of the tested compositions ability to work in an environment where the target surface being cleaned includes soiling. The GST test is carried out according to the EPA's Standard Operating Procedure for Germicidal Spray Products as Disinfectants (GSPT): Testing of Staphylococcus aureus, Pseudomonas aeruginosa, and Salmonella enterica, published under SOP MB-06-09, which is herein incorporated by reference in its entirety. Such is available at https://www.epa.gov/sites/default/files/2018-01/documents/mb-06-09,pdf. The OECD test is carried out according to the EPA's Standard Operating Procedure for OECD Quantitative Method for Evaluating Bactericidal and Mycobactericidal Activity of Microbicides Used on Hard, Non-Porous Surfaces, published under SOP MB-25-05, which is herein incorporated by reference in its entirety. Such is available at https://www.epa.gov/sites/default/files/2019-05/documents/mb-25-05.pdf.

[3] = FIG. 2, 1% SLS, 0.5% co-surfactant, 0.2% essential oil compound, averaged over contact times of 5, 15 and 30 minutes

Row | Molecule | inhibitory effect (normalized T0, lower = increased inhibitory effect) (Staphylococcus aureus [1]; 1% SLS) | inhibitory effect (normalized T0) (Staphylococcus aureus [1]; FIG. 3, 1.5% SLS, 1% essential oil compound, 1% co-surfactant) | log reduction against Staphylococcus aureus (Staphylococcus aureus [2]) | inhibitory effect (normalized T0) (Staphylococcus aureus [1]; [3])
1 | Cc1ccc(C(C)C)cc1O [carvacrol] | best inhibitory effect | lowest T0 values | increased log reduction with increasing carvacrol concentration | 
2 | Cc1ccc(C(C)C)c(O)c1 [thymol, reference compound] | some inhibitory effect |  |  | 
3 | alcohol ethoxylate |  |  |  | opposite of an inhibitory effect
4 | alkylpolyglycoside |  |  |  | opposite of an inhibitory effect
5 | sophorolipid |  |  |  | opposite of an inhibitory effect
